# Laboratory results: ChEMBL document CHEMBL4043066, “Drug Discovery Targeting Bromodomain-Containing Protein 4” (J Med Chem, 2017)
# pEC50, pIC50, pKd, pKi: −log10 of the molar value.
# Legend:
# [1] = system: MX1; experiment: Antiproliferative activity against human MX1 cells after 72 hrs by CellTiter-Glo assay; type: functional, cell-based; conditions: MX1, 72 h
# [2] = target: T1, Bromodomain-containing protein 4 (Homo sapiens, UniProt O60885); experiment: Inhibition of recombinant human N-terminal His6-tagged BRD4 bromodomain 1 expressed in Escherichia coli BL21(DE3) using biotinylated histone peptide as substrate after 60 mins by TR-FRET assay
# [3] = Antitumor activity against human JJN3R cells xenografted subcutaneously in mouse assessed as tumor growth inhibition at 1 mg/kg, po relative to control; type: functional; conditions: JJN-3R, read-out: TGI
# [4] = Metabolic stability in human liver microsomes assessed as compound remaining at 1 uM after 30 mins in presence of NADPH by LC/MS analysis; type: ADME, microsome; conditions: read-out: Stability
# [5] = Metabolic stability in CD1 mouse liver microsomes assessed as compound remaining at 1 uM after 30 mins in presence of NADPH by LC/MS analysis; type: ADME, microsome; conditions: read-out: Stability
# [6] = target: T1, Bromodomain-containing protein 4; experiment: Inhibition of His-epitope tagged BRD4 bromodomain 1 (44 to 168 residues) (unknown origin) using biotinylated histone H4 as substrate after 1 hr by AlphaScreen assay
# [7] = target: T1, Bromodomain-containing protein 4; experiment: Inhibition of His-epitope tagged BRD4 bromodomain 2 (333 to 460 residues) (unknown origin) using biotinylated histone H4 as substrate after 1 hr by AlphaScreen assay
# [8] = system: MV4-11; experiment: Antiproliferative activity against human MV4-11 cells; type: functional, cell-based
# [9] = target: CREB-binding protein (Homo sapiens, UniProt Q92793); experiment: Inhibition of His-tagged CREBP (unknown origin) using acetyl-histone H4 as substrate after 35 mins by AlphaScreen assay
# [10] = target: T1, Bromodomain-containing protein 4; experiment: Inhibition of His-tagged BRD4 (unknown origin) using acetyl-histone H4 as substrate after 35 mins by TR-FRET assay
# [11] = system: MV4-11; experiment: Antiproliferative activity against human MV4-11 cells after 4 days by CellTiter-Glo assay; type: functional, cell-based; conditions: MV4-11, 96 h
# [12] = target: T1, Bromodomain-containing protein 4; experiment: Inhibition of GST-tagged BRD4 bromodomain 1 (44 to 168 residues) (unknown origin) using biotinylated acetyl-histone H4 peptide as substrate after 30 mins in dark by AlphaScreen assay
# [13] = target: T1, Bromodomain-containing protein 4; experiment: Inhibition of GST-tagged BRD4 (unknown origin) using biotinylated acetyl-histone H4 peptide as substrate after 30 mins by AlphaScreen assay
# [14] = system: MV4-11; experiment: Antiproliferative activity against human MV4-11 cells after 72 hrs by alamarBlue assay; type: functional, cell-based; conditions: MV4-11, 72 h
# [15] = target: T1, Bromodomain-containing protein 4; experiment: Inhibition of BRD4 bromodomain 1 (unknown origin) using biotinylated substrate after 1 hr by AlphaLisa assay
# [16] = system: MV4-11; experiment: Antitumor activity against human MV4-11 cells harboring MLL-AF4 xenografted in mouse assessed as tumor growth inhibition at 1 mg/kg, po qd up to 28 days relative to control; type: functional; conditions: MV4-11, po, 672 h, read-out: TGI
# [17] = target: T1, Bromodomain-containing protein 4
# Description: Displacement of Halo-tagged histone H3.3 from N-terminal NanoLuc-tagged BRD4 bromodomain 1 (44 to 168 residues) (unknown origin) expressed in HCT116 cells after 18 hrs by NanoBRET assay
# [18] = target: T1, Bromodomain-containing protein 4; remark: listed apart in the source
# Description: Displacement of Halo-tagged histone H3.3 from NanoLuc-tagged full length BRD4 (unknown origin) expressed in HCT116 cells after 18 hrs by NanoBRET assay
# [19] = system: MX1; experiment: Antiproliferative activity against human MX1 cells incubated for >= 72 hrs by CellTiter-Glo assay; type: functional, cell-based; conditions: MX1, 72 h
# [20] = target: T1, Bromodomain-containing protein 4; experiment: Inhibition of recombinant His-tagged BRD4 (unknown origin) using biotinylated acetyl-histone H4 as substrate by AlphaLisa assay
# [21] = organism: Mus musculus; experiment: Antiinflammatory activity in CD1 mouse assessed as inhibition of LPS-induced IL-6 production pretreated for 1 hr followed by LPS stimulation after 2 hrs by immunoassay relative to control; type: functional
# [22] = target: T1, Bromodomain-containing protein 4; experiment: Inhibition of biotin-labeled acetylated peptide binding to BRD4 bromodomain 1 (unknown origin) expressed in Escherichia coli BL21 after 1 hr by BROMOscan assay
# [23] = system: MV4-11; experiment: Growth inhibition of human MV4-11 cells after 4 days by CellTiter-Glo assay; type: functional; conditions: MV4-11, 96 h
# [24] = system: MV4-11; experiment: Downregulation of BRD4 in human MV4-11 cells at 100 nM after 18 hrs by immunoblot analysis relative to control; type: functional
# [25] = target: T1, Bromodomain-containing protein 4; experiment: Inhibition of His-tagged BRD4 (44 to 477 residues) (unknown origin) using acetyl-histone H4 as substrate after 35 mins by TR-FRET assay
# [26] = system: MT4; experiment: Antiproliferative activity against human MT4 cells after 5 days by CellTiter-Glo assay; type: functional; conditions: MT4, 120 h
# [27] = target: T1, Bromodomain-containing protein 4; experiment: Inhibition of recombinant His-tagged BRD4 bromodomain 1 (K57 to E168 residues) (unknown origin) after 1 hr by TR-FRET assay
# [28] = target: T1, Bromodomain-containing protein 4; experiment: Inhibition of recombinant His-tagged BRD4 bromodomain 2 (E352 to E168 residues) (unknown origin) after 1 hr by TR-FRET assay
# [29] = system: MX1; experiment: Antitumor activity against human MX1 cells xenografted subcutaneously in SCID mouse assessed as tumor growth inhibition at 100 mg/kg, po after day 17 relative to control; type: functional; conditions: MX1, 408 h, read-out: TGI
# [30] = target: T1, Bromodomain-containing protein 4; experiment: Inhibition of His-tagged BRD4 bromodomain 1 (K57 to E168 residues) (unknown origin) after 1 hr by TR-FRET assay
# [31] = target: T1, Bromodomain-containing protein 4; experiment: Inhibition of recombinant human His-tagged BRD4 bromodomain 1 (44 to 168 residues) expressed in Escherichia coli BL21(DE3) after 30 mins by AlphaScreen assay
# CREB-binding protein, sequence (Q92793 whole entry): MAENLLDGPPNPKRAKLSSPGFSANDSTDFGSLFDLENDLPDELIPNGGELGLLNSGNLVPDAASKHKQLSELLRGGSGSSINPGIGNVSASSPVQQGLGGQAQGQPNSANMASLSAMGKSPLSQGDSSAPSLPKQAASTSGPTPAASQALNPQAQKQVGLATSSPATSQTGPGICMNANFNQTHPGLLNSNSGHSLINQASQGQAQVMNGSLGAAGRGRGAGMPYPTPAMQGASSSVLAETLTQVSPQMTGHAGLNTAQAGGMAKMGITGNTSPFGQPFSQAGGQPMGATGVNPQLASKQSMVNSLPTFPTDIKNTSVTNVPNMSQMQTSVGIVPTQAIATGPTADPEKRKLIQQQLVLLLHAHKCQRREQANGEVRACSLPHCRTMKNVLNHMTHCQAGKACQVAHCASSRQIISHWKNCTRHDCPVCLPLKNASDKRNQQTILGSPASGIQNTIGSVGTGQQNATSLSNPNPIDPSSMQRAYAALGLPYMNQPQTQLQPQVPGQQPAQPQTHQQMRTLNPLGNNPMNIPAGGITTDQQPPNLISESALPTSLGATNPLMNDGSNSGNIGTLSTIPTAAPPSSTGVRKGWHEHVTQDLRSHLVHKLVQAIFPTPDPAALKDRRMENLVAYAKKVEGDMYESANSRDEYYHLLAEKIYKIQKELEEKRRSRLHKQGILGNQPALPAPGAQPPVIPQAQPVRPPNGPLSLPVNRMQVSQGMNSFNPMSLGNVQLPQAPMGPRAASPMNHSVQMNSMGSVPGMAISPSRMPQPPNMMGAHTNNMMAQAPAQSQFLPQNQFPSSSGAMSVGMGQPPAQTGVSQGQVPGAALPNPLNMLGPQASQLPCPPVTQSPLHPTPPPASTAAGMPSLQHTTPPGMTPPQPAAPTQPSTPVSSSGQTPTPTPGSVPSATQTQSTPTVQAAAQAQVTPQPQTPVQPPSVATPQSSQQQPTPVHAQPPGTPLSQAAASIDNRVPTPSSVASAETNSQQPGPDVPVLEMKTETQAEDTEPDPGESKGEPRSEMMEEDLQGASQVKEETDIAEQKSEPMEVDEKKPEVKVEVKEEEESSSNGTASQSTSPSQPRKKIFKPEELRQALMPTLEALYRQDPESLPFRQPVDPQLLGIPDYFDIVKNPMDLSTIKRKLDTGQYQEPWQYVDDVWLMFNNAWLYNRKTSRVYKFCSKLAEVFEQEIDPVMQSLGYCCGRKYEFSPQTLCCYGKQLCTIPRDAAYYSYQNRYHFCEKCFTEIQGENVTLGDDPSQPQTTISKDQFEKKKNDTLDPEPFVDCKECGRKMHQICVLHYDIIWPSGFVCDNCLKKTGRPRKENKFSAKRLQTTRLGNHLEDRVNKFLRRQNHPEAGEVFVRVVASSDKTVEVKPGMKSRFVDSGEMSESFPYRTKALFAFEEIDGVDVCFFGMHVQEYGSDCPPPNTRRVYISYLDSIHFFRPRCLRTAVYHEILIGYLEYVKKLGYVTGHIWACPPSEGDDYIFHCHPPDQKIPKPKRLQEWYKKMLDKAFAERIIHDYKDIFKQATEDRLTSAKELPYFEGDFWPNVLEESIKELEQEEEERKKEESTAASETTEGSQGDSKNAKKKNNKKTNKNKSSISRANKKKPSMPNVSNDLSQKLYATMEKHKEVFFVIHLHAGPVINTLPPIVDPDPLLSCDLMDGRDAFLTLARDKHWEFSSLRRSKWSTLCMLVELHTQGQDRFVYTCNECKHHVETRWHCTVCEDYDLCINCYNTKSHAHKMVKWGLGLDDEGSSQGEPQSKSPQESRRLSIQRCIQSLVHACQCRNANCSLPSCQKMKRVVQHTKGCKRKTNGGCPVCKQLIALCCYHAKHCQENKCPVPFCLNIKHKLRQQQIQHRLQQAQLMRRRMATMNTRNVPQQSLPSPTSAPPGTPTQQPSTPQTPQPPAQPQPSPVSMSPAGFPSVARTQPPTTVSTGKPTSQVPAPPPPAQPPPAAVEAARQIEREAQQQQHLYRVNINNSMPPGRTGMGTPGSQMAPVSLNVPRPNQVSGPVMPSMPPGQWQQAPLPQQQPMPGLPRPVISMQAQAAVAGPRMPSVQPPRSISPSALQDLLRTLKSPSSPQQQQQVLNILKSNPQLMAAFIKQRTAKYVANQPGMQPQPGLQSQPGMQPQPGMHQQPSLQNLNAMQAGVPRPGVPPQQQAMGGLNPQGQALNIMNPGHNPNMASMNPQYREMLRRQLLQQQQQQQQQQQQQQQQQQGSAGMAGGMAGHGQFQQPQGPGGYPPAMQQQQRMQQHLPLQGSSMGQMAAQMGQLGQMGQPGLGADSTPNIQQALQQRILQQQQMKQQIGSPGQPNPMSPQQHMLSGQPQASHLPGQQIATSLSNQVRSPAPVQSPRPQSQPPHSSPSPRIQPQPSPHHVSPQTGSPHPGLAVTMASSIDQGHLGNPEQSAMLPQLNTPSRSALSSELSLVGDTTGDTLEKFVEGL
smiles,measurement,setting,value
CCOc1cc(=O)n(C)cc1-c1cc(N(CC2CC2)S(=O)(=O)CC)ccc1Oc1ccc(F)cc1F,pEC50,[1],6.63
[2H]C([2H])([2H])c1nnn(C)c1-c1cnc2c3ccc(C(C)(C)O)cc3n([C@H](c3ccccc3)C3CCC(F)(F)CC3)c2c1,pIC50,[2],> 8.30
same,inhibition in vivo at 1 mg/kg,[3],93%
COc1cc2c(cc1-c1c(C)noc1C)ncc1nc(C3CCC(F)(F)CC3)n([C@H](C)COC(F)F)c12,"remaining at 0.5 h, 1 µM",[4],62%
same,"remaining at 0.5 h, 1 µM",[5],35%
CC(=O)N1c2ccc(-c3cnn([C@H]4CCNC[C@H]4F)c3)c(OCC3CCC3)c2CC[C@H]1C,pIC50,[6],> 7.00
same,pIC50,[7],> 7.30
Cc1noc(C)c1-c1ccc2c(c1)C(c1ccsc1)(N1CCC[C@H](N)C1)C(=O)N2 (stereo not given in full),pIC50,[8],7.47
Cc1nn(C2CC2)c2c1[C@@H](c1ccc(Cl)cc1)N(c1cc(C)c3nnc(C)n3n1)C2=O,pIC50,[9],5.43
same,pIC50,[10],> 7.96
same,pIC50,[11],8.47
COC[C@@H](C)n1c(-c2cn3c(C)nnc3c(NC(C)C)n2)nc2cc3c(cc21)N(C(C)C)S(=O)(=O)C3(C)C,pIC50,[12],7.77
Cc1noc(C)c1-c1ccc2c(c1)C(c1ccccc1)N1CCCOC21 (stereo not given),pIC50,[13],7.44
CNC(=O)N1N=C(c2ccc(N3CC4(CCS4(=O)=O)C3)cc2)c2cc(-n3nc(C)cc3C)ccc2C[C@@H]1C,pIC50,[14],7.10
[2H]C([2H])([2H])c1nnn(C)c1-c1cnc2c3ccc(C(C)(C)O)c(F)c3n([C@H](c3ccccc3)C3CCOCC3)c2c1,pIC50,[2],> 8.30
same,inhibition in vivo at 1 mg/kg,[3],103%
CCNC(=O)CC1N=C(c2c(F)cccc2F)c2cc(OC)ccc2-c2cn(C)c(=O)cc21 (stereo not given),pIC50,[15],> 9.30
same,pEC50,[14],7.89
COc1cc2c(cc1-c1c(C)noc1C)ncc1nc(C3CCOCC3)n([C@H](C)COC(F)F)c12,"remaining at 0.5 h, 1 µM",[4],43%
same,"remaining at 0.5 h, 1 µM",[5],56%
COc1nnc2ccc(N3CCC(c4ccc(OCCN5CCN(C)C(=O)[C@H]5C)cc4)CC3)nn12 [AZD-5153],inhibition in vivo at 1 mg/kg,[16],72%
same,pIC50,[17],5.80
same,pIC50,[18],8.30
Cc1[nH]c(-c2ccccc2NC2CCCCC2F)cc1C(N)=O (stereo not given),pEC50,[19],6.36
CCS(=O)(=O)c1ccc2c(c1)-c1cn(C)c(=O)cc1OCCCCc1cc(Cl)ccc1O2,pEC50,[1],8.24
same,pIC50,[20],9.03
same,inhibition (INH),[21],83%
Cc1sc2c(c1C)C(c1ccc(Cl)cc1)=N[C@@H](CC(=O)OCCCCCCO)c1nnc(C)n1-2,pKd,[22],9.37
COc1cc2c(cc1-c1c(C)noc1C)ncc1nc(CN3CCOCC3)n([C@H](C)COC(F)F)c12,"remaining at 0.5 h, 1 µM",[4],1.9%
same,"remaining at 0.5 h, 1 µM",[5],3.7%
Cc1cc(N2C(=O)c3c(C4CC4)cn(C4COC4)c3C2c2ccc(Cl)cc2)cn2c(C)nnc12 (stereo not given),GI50,[23],2.9 nM
Cc1sc2c(c1C)C(c1ccc(Cl)cc1)=N[C@@H](CC(=O)NCCCCNC(=O)COc1cccc3c1C(=O)N(C1CCC(=O)NC1=O)C3=O)c1nnc(C)n1-2 (stereo not given in full),Activity,[24],>80%
Cc1nnc2c(NC(C)C)nc(-c3nc4cnc(N5CCOC[C@H]5C)cc4n3C(C)CC3CC3)cn12 (stereo not given in full),pIC50,[12],8.05
Cc1noc(C)c1-c1ccc2c(c1)C(c1ccccc1)N(CC1CCN(C)CC1)C(=O)N2 (stereo not given),pIC50,[13],7.51
Cc1noc(C)c1-c1ccc2c(c1)[C@H](c1ccccc1)N(C)C2=O,pIC50,[13],7.85
CCOC(=O)CC1N=C(c2ccc(Cl)cc2)c2cc(OC)ccc2-c2cn(C)c(=O)cc21 (stereo not given),pIC50,[15],8.52
same,pEC50,[14],8.70
CCn1nc(C)c2c1C(=O)N(c1cc(C)c(=O)n(C)c1)C2c1ccc(Cl)cc1F (stereo not given),pIC50,[11],8.11
COc1ncccc1-c1c(C2CC2)c2c(n1C)C(c1ccc(Cl)cc1)N(c1cc(C)c3nnc(C)n3c1)C2=O (stereo not given),GI50,[23],3 nM
same,pIC50,[25],> 7.96
Cc1noc(C)c1-c1ccc2c(c1)C(c1ccccc1)N(C)C(=O)N2 (stereo not given),pIC50,[13],7.57
CNC(=O)N1N=C(c2ccc(N3CC4(CCS4(=O)=O)C3)cc2)c2cc(OC(F)(F)F)ccc2C[C@@H]1C,pIC50,[14],7.52
Cc1cc(-c2nc3ccc(N4CCOC[C@@H]4C)cc3n2[C@@H](C)c2ccccc2)cn(C)c1=O,pIC50,[12],7.92
Cc1sc2c(c1C)C(c1ccc(Cl)cc1)=N[C@@H](CC(=O)OC(C)(C)C)c1nnc(C)n1-2,pIC50,[8],7.14
Cc1noc(C)c1-c1cc(C(O)(c2cnccn2)c2c(F)cccc2F)c2[nH]c(=O)[nH]c2c1 (stereo not given),CC50,[26],9.7 nM
Cc1cc(N2C(=O)c3c(c(CO)nn3C3CC3)[C@H]2c2ccc(Cl)cc2)cn2c(C)nnc12,pIC50,[9],5.85
same,pIC50,[10],> 7.96
same,pIC50,[11],8.03
Cc1noc(C)c1-c1ccc2c(c1)C(O)(c1ccccc1)C(=O)N2 (stereo not given),pIC50,[8],7.24
CCS(=O)(=O)c1ccc2c(c1)-c1cn(C)c(=O)cc1OCCCCc1cc(F)cc(F)c1O2,pEC50,[1],8.06
same,pIC50,[20],8.89
same,inhibition (INH),[21],81%
CCOc1cc(=O)n(C)cc1-c1cc(NC(=O)CCc2ccccc2)ccc1Oc1ccc(F)cc1F,pEC50,[1],6.40
same,pIC50,[27],7.16
same,pIC50,[28],7.96
CC(=O)N1c2ccc(-c3cnn(C4CC4)c3)cc2C(OC[C@H]2CC2(F)F)C[C@H]1C (stereo not given in full),pIC50,[6],> 7.00
same,pIC50,[7],> 7.30
Cc1noc(C)c1-c1cc(-c2c(C3CC3)n[nH]c2C2CC2)c2[nH]c(=O)[nH]c2c1,CC50,[26],9.1 nM
CC(=O)N1CC(n2cc(C3CC3)c3c2C(c2ccc(Cl)cc2)N(c2cc(C)c4nnn(C)c4n2)C3=O)C1 (stereo not given),GI50,[23],0.3 nM
same,pIC50,[25],> 7.96
Cc1[nH]c(-c2cc(NS(C)(=O)=O)ccc2Oc2ccccc2)c2c1C(=O)CCC2,inhibition in vivo at 100 mg/kg,[29],80%
Cc1sc2c(c1C)C(c1ccc(Cl)cc1)=N[C@H](CC(=O)OC1CCC(O)CC1)c1nnc(C)n1-2 (stereo not given in full),pKd,[22],8.89
CCNC(=O)CC1N=C(C2CCCCC2)c2cc(OC)ccc2-c2cn(C)c(=O)cc21 (stereo not given),pEC50,[14],8.10
CCS(=O)(=O)Nc1ccc(Oc2ccc(F)cc2F)c(-c2cn(C)c(=O)c3[nH]c(C#CCOC)cc23)c1,pEC50,[19],7.32
same,pKi,[30],8.80
COc1ccc(S(=O)(=O)Nc2cccc(Oc3ccc(S(C)(=O)=O)cc3-c3cn(C)c(=O)c4[nH]ccc34)c2)cc1,pEC50,[19],7.01
CNC(=O)N1N=C(c2ccc(N3C[C@H]4CC[C@@H](C3)O4)cc2)c2cc(OC)c(OC)cc2C[C@@H]1C,pIC50,[14],7.52
CC1=C(C)C2C(c3ccc(Cl)cc3)=N[C@@H](CC(=O)NCCOCCOCCOCCOCCOCCOCCOCCNC(=O)C[C@@H]3N=C(c4ccc(Cl)cc4)c4c(sc(C)c4C)-n4c(C)nnc43)c3nnc(C)n3C2S1 (stereo not given in full),pIC50,[31],8.51
same,pIC50,[8],9.77
CCS(=O)(=O)Nc1cc(-c2cn(C)c(=O)c3[nH]ccc23)c(Oc2ccc(F)cc2F)cc1CN1CCOCC1,pEC50,[19],7.80
